Values after ≈ are worked out from the molar mass of the structure shown. Active and inactive are the calls of the source. No cut-off for these calls is given here.
Assays:
[1] = biological target: Orotidine 5'-phosphate decarboxylase (Methanobacterium thermoautotrophicum) (UniProt O26232); assay: Inhibition of Methanobacterium thermoautotrophicum ODCase at 250 uM in less than 30 mins; conditions: Methanothermobacter thermautotrophicus
[2] = biological target: Orotidine 5'-phosphate decarboxylase (Methanobacterium thermoautotrophicum) (UniProt O26232); assay: Inhibition of Methanobacterium thermoautotrophicum ODCase at 50 uM after 8 hrs; parameters: scale not given: the % may be the effect or the level left; conditions: Methanothermobacter thermautotrophicus
[3] = biological target: T1, Orotidine phosphate decarboxylase (Plasmodium falciparum) (UniProt Q8T6J6); assay: Inhibition of Plasmodium falciparum ODCase
T1 sequence (whole entry): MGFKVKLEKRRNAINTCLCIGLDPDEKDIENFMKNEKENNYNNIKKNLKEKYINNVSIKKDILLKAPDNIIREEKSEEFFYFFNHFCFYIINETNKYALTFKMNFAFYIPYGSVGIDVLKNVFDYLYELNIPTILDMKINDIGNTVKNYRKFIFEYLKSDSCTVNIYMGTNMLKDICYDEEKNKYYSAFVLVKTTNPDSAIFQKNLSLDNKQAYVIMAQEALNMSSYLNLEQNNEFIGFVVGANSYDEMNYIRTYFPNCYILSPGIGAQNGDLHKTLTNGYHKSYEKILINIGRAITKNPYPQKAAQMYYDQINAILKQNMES

[4] = Solubility in distilled water; format: physicochemical
Plasmodium falciparum = assay: Antiparasitic activity against chloroquine-resistant Plasmodium falciparum ItG after 48 hrs by SYBR-Green assay; format: functional, organism-based
[5] = Dissociation constant, pKa of the compound; format: physicochemical

Orotidine 5'-phosphate decarboxylase (Methanobacterium thermoautotrophicum), sequence (O26232 whole entry, looked up): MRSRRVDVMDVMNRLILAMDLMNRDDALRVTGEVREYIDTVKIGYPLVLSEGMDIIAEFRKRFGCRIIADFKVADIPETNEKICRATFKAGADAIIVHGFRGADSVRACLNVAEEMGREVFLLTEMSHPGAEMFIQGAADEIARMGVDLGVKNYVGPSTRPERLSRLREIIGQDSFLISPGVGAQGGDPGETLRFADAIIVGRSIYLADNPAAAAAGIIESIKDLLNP

Row | Activity [1] | Activity [2] [%] | Activity [3] | SMILES | solubility [4] [µg/mL] | IC50 (Plasmodium falciparum) [µM] | pKa [5]
1 | Active | > 60 | Active | O=c1cc(I)n([C@@H]2O[C@H](COP(=O)(O)O)[C@@H](O)[C@H]2O)c(=O)[nH]1 |  |  | 
2 |  |  |  | O=c1cc(I)n([C@@H]2O[C@H](CO)[C@@H](O)[C@H]2O)c(=O)[nH]1 | 4320 (≈ 11.7 mM) | 4.4 | 8.42
